The values that follow come from patent US9738878B2, “HIV-1 integrase derived peptides and compositions” (priority 2008, dated 2017).

In one series the target is T1, Rev 13-23 (Human immunodeficiency virus type 1 group M subtype B, UniProt P04618).
T1 construct: biotinylated-BSA-Rev 13-23 or Rev 53-67 conjugates
The experiment in a line: ELISA-based binding assay, biotinylated-BSA-Rev 13-23 conjugate on peptide-coated plates. Also on record: species or system HIV-1. The protocol: (§1) Protein-peptide binding was estimated using an ELISA-based binding assay as described previously (Rosenbluh et al., 2006, Anal Biochem 352, 157-168). Briefly, Maxisorp plates (Nunc) were incubated at room temperature for 2 h with 200 μl of 10 μg/ml synthetic peptide in carbonate buffer. After incubation, the solution was removed, the plates were washed three times with PBS, and 200 μl of 10% BSA in PBS (w/v) was added for 2 h at room temperature. […] Following three washes with PBS, the concentration of bound biotinylated molecules was estimated after the addition of streptavidin-horseradish peroxidase (HRP) conjugate (Sigma), as described previously (Melchior et al., 1993, J Cell Biol 123, 1649-1659). The concentration of bound protein molecules was estimated after the addition of anti-GFP mouse antibody (Santa Cruz) which then was interacted with rabbit anti-mouse IgG antibody conjugated to HRP. The enzymatic activity of HRP was estimated by monitoring the product's optical density (OD) at 490 nm using an ELISA plate reader (Tecan Sunrise). Each measurement was performed at least in duplicate.
(§2) Selection of peptide sequences that interact with the Rev protein, Rev-derived peptides, and the IN itself was made by screening of an N peptide library (NIH AIDS Research and Reference Reagent Program, Division of AIDS, NIAID, NIH: HIV-1 Consensus B Pol (15-mer) peptides—Complete Set from DAIDS, NIAID), using an ELISA-based assay system.
(§3) FIG. 1: 1A—Rev-GFP or GFP alone were incubated in ELISA plates coated with either INr-1 (♦, ⋄, respectively), INr-2 (▪, □, respectively) or INS (▴, Δ, respectively) and binding was determined as described above. 1B—The IN protein was first bound to the ELISA plate and then incubated with Rev-GFP to obtain a Rev-IN complex. The complex was then incubated with either one of the INr peptides or the INS peptide at the designated Rev-GFP:peptide ratio. Wells were then washed and the amount of bound Rev-GFP was determined by mouse anti-GFP antibody and secondary rabbit anti-mouse HRP-conjugated antibody. […]
(In general: In an ELISA, binding on a coated surface is turned into a signal by an enzyme label.)

In the next series the target is T2, Rev 53-67 (Human immunodeficiency virus type 1 group M subtype B, UniProt P04618).
T2 construct: biotinylated-BSA-Rev 13-23 or Rev 53-67 conjugates
Kind of series: ELISA-based binding assay, biotinylated-BSA-Rev 53-67 conjugate on peptide-coated plates. The arrangement: species or system HIV-1. The protocol:
as §1, §2, §3

For the next series, the system named is Rev-GFP. The experiment in a line: ELISA-based binding assay, Rev-GFP on peptide-coated plates. The arrangement: species or system HIV-1. Particulars: screen of IN peptide library. On the procedure:
as §1, §2, §3

The target of series [1] is T3, IN (Human immunodeficiency virus type 1 group M subtype B, UniProt P12497).
T3 construct: The histidine-tagged IN expression vector was a generous gift from Dr. A. Engelman; histidine tag; made in house
The experiment in a line: IN enzymatic activity assay. It counts as biochemical, HIV-1. To be noted: for integrase activity inhibited by Rev-derived peptide, restoration: molar ratio 1:10 (Rev peptide:INr peptide). The protocol: The IN enzymatic activity assay was performed using a previously described assay system (Craigie et al., 1991, Nucleic Acids Res 19, 2729-2734, Hwang et al., 2000, Nucleic Acids Res 28, 4884-4892). Briefly, the oligonucleotide substrate consisted of one oligo (5′-[…]-3′) labeled with biotin at the 3′ end and the other oligo (5′-[…]-3′) labeled with digoxigenin at the 5′ end. When inhibition was studied, the IN was preincubated with the peptide or protein for 15 min prior to addition of the DNA substrate.
FIG. 2 (A) Rev-GFP (dark green) or GFP (turquoise) were incubated at different molar ratios with IN (390 nM) and the IN enzymatic activity was determined as described above. (B) Rev-GFP was preincubated with the indicated INS peptide at a molar ratio of 5:1 (peptide:Rev-GFP) and the resultant mixture was added to a solution containing IN to give a molar ratio of 1:200 and 1:400 (IN:Rev-GFP). Following an incubation period, IN activity was estimated as described above. (C) Same as (B) but with the INrs peptides.
FIG. 3 A-C IN (390 nM) was incubated with 50 μM of the Rev-derived peptides (1:300 IN:Rev-derived peptide, Rev13-23 or Rev 53-67) and then the INS peptide was added at different molar ratios ranging from 10:1 to 1:10 (Rev peptide:INS peptide) (A) IN (390 nM) was incubated with 50 μM of the Rev-derived peptides (1:300 IN:Rev-derived peptide), (Rev13-23 (B) and Rev 53-67 (C)) and then the INr peptides were added at different molar ratios ranging from 10:1 to 1:10 (Rev peptide:INr peptide).

Another series has as its system HIV-1 DNA integration. Kind of series: Copy numbers of HIV-1 DNA integrated into cellular genome, real-time PCR. The series is classed as cell-based. To be noted: H9 cells, 24 hours post infection, single cycle of infection, Δenv/VSV-G HIV-1. The protocol:
During the second-round PCR, the first-round PCR product could be specifically amplified by using the tag-specific primer (tag-F 5′-[…]-3′) and the LTR primer (LTR-R 5′-[…]-3′) designed by PrimerExpress (Applied Biosystems) using default settings. The second-round PCR was performed on 1/25th of the first-round PCR product in a mixture containing 300 nM of each primer, 12.5 μl of 2λ SYBR Green master mixture (Applied Biosystems) at a final volume of 25 μl, run on an ABI PRIZM 7700 (Applied Biosystems).
For generation a standard calibration curve, the SVC21 plasmid containing the full-length HIV-1HXB2 viral DNA was used as a template. In the first-round PCR, the LTR-TAG-F and LTR-R primers were used and the second-round PCR was performed using the tag-F and LTR-R primers. The standard linear curve was in the range of 5 ng to 0.25 fg (R=0.99). DNA samples were assayed with quadruplets of each sample. The cell equivalents in the sample DNA were calculated based on amplification of the 18S gene by real-time PCR as described in (Field et al, 2002, Biochem J 368, 855-864).
. (B) H9 T-lymphoid cells were incubated with the indicated peptides (12.5 μM) or AZT (2 μM) and following HIV-1 infection, the integrated viral DNA/cell was assessed by real-time PCR following a single cycle of infection at a MOI of 5 of Δenv/VSV-G HIV-1.
For orientation: Quantitative PCR measures a nucleic acid by following its amplification.

Series [2] addresses T3, IN. Kind of series: ELISA-based binding assay, IN protein. The arrangement: species or system HIV-1. The protocol: Each measurement was performed at least in duplicate.
Selection of peptide sequences that interact with the Rev protein, Rev-derived peptides, and the IN itself was made by screening of an N peptide library (NIH AIDS Research and Reference Reagent Program, Division of AIDS, NIAID, NIH: HIV-1 Consensus B Pol (15-mer) peptides—Complete Set from DAIDS, NIAID), using an ELISA-based assay system. […] This observation further confirmed that the sequence of the NS and INrs peptides within the N protein mediate the interaction with the Rev protein. The NS peptide interacted with both Rev 13-23 and Rev 53-67 peptides while Nr-1 and Nr-2 interacted with the Rev 53-67 and Rev 13-23 peptides respectively (FIG. 1D and Table 1). […] This was inferred from experiments showing that biotinylated-BSA-Rev 13-23 or Rev 53-67 conjugates were able to interact with NS or INrs peptides-coated plates (FIGS. 1C and 1D).

A further series concerns HeLa TZM-b1 cells. Kind of series: Cell viability, MTT assay. It counts as cell-based. To be noted: up to about 62 μM. For orientation: Formazan colour is commonly taken as a measure of viable cells.
In series [3] the test system is HIV-1.
Method: Quantitative titration of HIV-1 was carried out using the MAGI assay, as described by Kimpton and Emerman (J Virol 1992, 66, 2232-2239). […] Two days post-infection (PI), cultured cells were fixed and ƒl-galactosidase was estimated as described above. Blue cells were counted under a light microscope at 200× magnification.
The concentration of azidothymidine (AZT) used was 2 μM.
In the next series the test system is HeLa cells. The experiment in a line: Cell-penetration experiments, fluorescein-labeled peptides, confocal microscopy. The series is classed as cell-based. To be noted: fluorescein-labeled peptide 10 μM. The protocol: Fluorescein-labeled peptides at a final concentration of 10 μM in PBS were incubated with HeLa cells for 1 h at 37° C.
The cells were then washed three times with PBS and visualized by a confocal microscope. […] (C) same as (B) but in H9 lymphocytes

Series [4] deals with HIV-1 infected lymphocyte cells. Kind of series: Lysis of HIV-1 infected cells after one cycle of infection, MTT. To be noted: 62.5-150 μM, ΔENV/VSV-G HIV-1 MOI 10, MTT 48 h post infection.
The nature of series [5]: Survival of HIV-1 infected and uninfected Hela cells. It counts as cell-based. Particulars: human, uninfected HeLa cells, read-out: intact viable uninfected Hela cells. On the procedure:
FIG. 7 Percentage of viable infected and uninfected Hela cells normalized every two days to the number of cells in the non treated non infected cells sample. Cells were infected with WT HIV-1 at MOI of 0.01 and the treated cells were added 12.5 μM of INS.

The next series relates to Rev-IN complex. To be noted: peptide added to preformed complex.
Series [6] relates to HIV-1. To be noted: H9 and Sup-T1 cells, peptide 12.5 μM.
Method: Cultured lymphocytes (1×10^5) were centrifuged for 5 min at 2000 rpm and after removal of the supernatant, the cells were resuspended in 0.2 to 0.5 ml of RPMI 1640 medium containing virus at a multiplicity of infection (MOI) of 0.01, 0.1 and 5. Following absorption for 2 h at 37° C., the cells were washed to remove unbound virus and then incubated at the same temperature for an additional 1 to 8 days.
Lymphoid cells were incubated with the indicated peptides for 2 h and following infection with wild-type HIV-1 at a MOI of 0.01 (as described above), the cells were incubated for 8 days, or 48 h at a MOI of 1. The amount of p24 protein was estimated in the cell medium every 2 days exactly as described previously.
The amount of viral P24 (A and B) and virus titer (C and D) were determined every 2 days by ELISA and MAGI assay (Kimpton 1992, J Virol 66, 2232-2239), respectively. The concentration of azidothymidine (AZT) used was 2 μM.

No end group written: not given here.

Regarding WTHLEGKIILVAVHVA [INr-1], at Rev 13-23, the “interaction with Rev 13-23 peptide” value is listed as “not with the Rev 13-23 peptide”. Further, at Rev 53-67, the “interaction with Rev 53-67 peptide” value is listed as “interacted”. Further, the “interaction with Rev-GFP” value in the series on Rev-GFP is listed as “specifically interacting”. For the same sequence, the “abrogation of inhibitory effect of Rev 53-67 peptide on IN activity” value at IN [1] (IN 390 nM, Rev peptide 50 μM) is listed as “abrogated the inhibitory effect”. Also, the “integrase activity inhibited by Rev-derived peptide, restoration” value on IN [1] is recorded as “fully restored”.
In the case of WGSNFTSTTVKA [INr-2], the “interaction with Rev 13-23 peptide” value at Rev 13-23 was “interacted”. The “interaction with Rev 53-67 peptide” value on Rev 53-67 is recorded as “not with Rev 53-67”. The “interaction with Rev-GFP” value with Rev-GFP is on record as “specifically interacting”. Also, the “abrogation of inhibitory effect of Rev 13-23 peptide on IN activity” value on IN [1] (IN 390 nM, Rev peptide 50 μM) is on record as “abrogated the inhibitory effect”. At IN [1], the “integrase activity inhibited by Rev-derived peptide, restoration” value is reported as “fully restored”.
Take WTAVQMAVFIHNFKRK [INS]: at Rev 13-23, the “interaction with Rev 13-23 peptide” value is reported as “interacted”. In the series on HIV-1 DNA integration, the “stimulation of integration per cell” value was 2- to 5 fold. Moreover, on IN [2], the “interaction with the IN protein itself” value is recorded as “interact”. On Rev 53-67, the “interaction with Rev 53-67 peptide” value is given as “interacted”. Further, the cell toxicity result with HeLa TZM-b1 cells is given as “non-toxic”. The “appearance of infectious viral particles” value with HIV-1 [3] is “stimulation”. Also, in the series on HeLa cells, the cell penetration entry is “cell-permeable”. In series [4], the “cell death after one cycle of infection” value is listed as “induce killing of only infected lymphocyte cells”. In addition, in the series on Rev-GFP, the “interaction with Rev-GFP” value is “specifically interacting”. In series [5], the viability at 12.5 µM was approximately 100%. Further, the “release of bound Rev-GFP from the complex formed between IN and Rev-GFP” value with Rev-IN complex was “induces the release of the bound Rev-GFP”. For the same sequence, the “enzymatic activity of HIV-1 IN” value at IN [1] (in the absence of the inhibitory Rev peptide) is reported as “significantly stimulated”. Also, on IN [1] (molar ratio Rev:INS peptide 1:5), the “integrase activity inhibited by Rev-derived peptides, restoration” value is on record as “fully restored”. On IN [1] (molar ratio Rev:INS peptide 1:10), the “integrase activity in presence of Rev-derived peptides” value is reported as “stimulate the IN activity”. For the same sequence, on IN [1] (peptide:Rev-GFP 5:1, IN:Rev-GFP 1:200 and 1:400), the “abrogation of Rev-GFP inhibition of IN activity” value is on record as “abrogated the inhibitory activities of Rev-GFP”. Besides, the “appearance of viral p24 antigen” value with HIV-1 [6] is listed as “Stimulation”.
